Laboratory results taken from PubChem BioAssay AID1918953 (Molecular Pharmacology Branch, DTP, NCI, 2023).

Test system: MDA-MB-231 complex spheroid viability
Assay: Anticancer human tumor MDA-MB-231/ATCC cell line growth inhibition;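 further: drug exposure lasted 7 days starting on day 3 of spheroid growth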
Details: for IC50: curve of first compound; for viability, T/C: stronger effect = lower value
Summary of the method: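 Drug combinations with the LSD1 inhibitor iadademstat tested on tumor cells co-cultured as spheroids with endothelial cells and mesenchymal stem cells. Concentrations descended in half-log increments from clinical Cmax or 10 microM.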

[1] = second compound 0.1 µM, first compound 0.000316 µM
[2] = second compound 0.1 µM, first compound 0.001 µM
[3] = second compound 0.1 µM, first compound 0.00316 µM
[4] = second compound 0.1 µM, first compound 0.01 µM
[5] = second compound 0.1 µM, first compound 0.0316 µM
[6] = second compound 0.1 µM, first compound 0.1 µM
[7] = second compound 0.316 µM, first compound 0.000316 µM
[8] = second compound 0.316 µM, first compound 0.001 µM
[9] = second compound 0.316 µM, first compound 0.00316 µM
[10] = second compound 0.316 µM, first compound 0.01 µM
[11] = second compound 0.316 µM, first compound 0.0316 µM
[12] = second compound 0.316 µM, first compound 0.1 µM
[13] = second compound 1 µM, first compound 0.000316 µM
[14] = second compound 1 µM, first compound 0.001 µM
[15] = second compound 1 µM, first compound 0.00316 µM
[16] = second compound 1 µM, first compound 0.01 µM
[17] = second compound 1 µM, first compound 0.0316 µM
[18] = second compound 1 µM, first compound 0.1 µM
[19] = second compound 3.16 µM, first compound 0.000316 µM
[20] = second compound 3.16 µM, first compound 0.001 µM
[21] = second compound 3.16 µM, first compound 0.00316 µM
[22] = second compound 3.16 µM, first compound 0.01 µM
[23] = second compound 3.16 µM, first compound 0.0316 µM
[24] = second compound 3.16 µM, first compound 0.1 µM
[25] = second compound 10 µM, first compound 0.000316 µM
[26] = second compound 10 µM, first compound 0.001 µM
[27] = second compound 10 µM, first compound 0.00316 µM
[28] = second compound 10 µM, first compound 0.01 µM
[29] = second compound 10 µM, first compound 0.0316 µM
[30] = second compound 10 µM, first compound 0.1 µM

## CC(C)CC(NC(=O)C(Cc1ccccc1)NC(=O)c1cnccn1)B(O)O (stereo not given) + NC1CC1c1ccc(-c2cccc(O)c2)cc1
Second compound 0.1 µM
  IC50: < 0.316 nM
Second compound 0.316 µM
  IC50: < 0.316 nM
Second compound 1 µM
  IC50: < 0.316 nM
Second compound 3.16 µM
  IC50: < 0.316 nM
Second compound 10 µM
  IC50: < 0.316 nM
[1]
  viability, T/C: 29.9%
[2]
  viability, T/C: 1.88%
[3]
  viability, T/C: 0.68%
[4]
  viability, T/C: 0.5%
[5]
  viability, T/C: 0.85%
[6]
  viability, T/C: 1.08%
[7]
  viability, T/C: 31.8%
[8]
  viability, T/C: 0.28%
[9]
  viability, T/C: 0.07%
[10]
  viability, T/C: 0.06%
[11]
  viability, T/C: 0.07%
[12]
  viability, T/C: 0.14%
[13]
  viability, T/C: 28.9%
[14]
  viability, T/C: 0.45%
[15]
  viability, T/C: 0.11%
[16]
  viability, T/C: 0.08%
[17]
  viability, T/C: 0.09%
[18]
  viability, T/C: 0.15%
[19]
  viability, T/C: 25.6%
[20]
  viability, T/C: 0.41%
[21]
  viability, T/C: 0.12%
[22]
  viability, T/C: 0.15%
[23]
  viability, T/C: 0.07%
[24]
  viability, T/C: 1.91%
[25]
  viability, T/C: 18.3%
[26]
  viability, T/C: 0.24%
[27]
  viability, T/C: 0.13%
[28]
  viability, T/C: 0.11%
[29]
  viability, T/C: 0.12%
[30]
  viability, T/C: 1.1%

## CC(C)CC(NC(=O)CNC(=O)c1cc(Cl)ccc1Cl)B1OC(=O)CC(CC(=O)O)(C(=O)O)O1 (stereo not given) + NC1CC1c1ccc(-c2cccc(O)c2)cc1
Second compound 0.1 µM
  IC50: 4.37 nM
Second compound 0.316 µM
  IC50: 3.09 nM
Second compound 1 µM
  IC50: 2.35 nM
Second compound 3.16 µM
  IC50: 2.49 nM
Second compound 10 µM
  IC50: 1.01 nM
[1]
  viability, T/C: 85.1%
[2]
  viability, T/C: 93.9%
[3]
  viability, T/C: 62.9%
[4]
  viability, T/C: 14.6%
[5]
  viability, T/C: 1.93%
[6]
  viability, T/C: 1.29%
[7]
  viability, T/C: 67.8%
[8]
  viability, T/C: 73.3%
[9]
  viability, T/C: 48.4%
[10]
  viability, T/C: 11.8%
[11]
  viability, T/C: 0.83%
[12]
  viability, T/C: 0.29%
[13]
  viability, T/C: 61.7%
[14]
  viability, T/C: 66%
[15]
  viability, T/C: 44.4%
[16]
  viability, T/C: 13.8%
[17]
  viability, T/C: 0.95%
[18]
  viability, T/C: 0.24%
[19]
  viability, T/C: 61.8%
[20]
  viability, T/C: 73.7%
[21]
  viability, T/C: 43.4%
[22]
  viability, T/C: 12.7%
[23]
  viability, T/C: 0.98%
[24]
  viability, T/C: 0.37%
[25]
  viability, T/C: 48%
[26]
  viability, T/C: 55.2%
[27]
  viability, T/C: 30.4%
[28]
  viability, T/C: 7.98%
[29]
  viability, T/C: 0.83%
[30]
  viability, T/C: 0.27%
